Data published in US20030125264A1, “Methods For Treating Wounds” (Kimberly-Clark Worldwide, Inc., priority 2001, published 2003).

Tested on: human foreskin fibroblasts (ATCC cell line CRL-2522)
Test: proliferative response of human skin fibroblasts to flavonoids (96-well, Cell Titer 96 Aqueous One, absorbance 490 nm)
Assay type: cell-based
Details: for difference in cell proliferation between controls and test compound (one-way ANOVA): P<0.01 and 0.05, vehicle control 0.1% DMSO in DMEM, n=6; for cell proliferating effect on human skin fibroblasts: at lower concentrations (samples tested at 10^-4, 10^-5 and 10^-6 M; 28 hours, serum-free DMEM, 0.1% DMSO, n=6)
Description: The proliferative response of flavonoids to the human skin fibroblast cell line (ATCC, Manassas, Va., cell line CRL-2522 human foreskin fibroblast) was determined in a 96-well assay system using serum-free medium as a control. Stock solutions of flavonoids were prepared as 1.0 mole/L solutions in Dimethyl sulfoxide (DMSO, Sigma Chemical Company, St. Louis, Mo.) then diluted with Dulbecco's Modified Eagle's Medium (DMEM, Sigma Chemical Co., St. Louis, Mo.) to 10^−4, 10^−5, and 10^−6 M solutions with a final DMSO concentration of 0.1% (v:v). Cells were seeded into 96 well plates at a concentration of 2×10^3 cells in 100 μl of DMEM containing 10% fetal bovine serum (FBS, Sigma Chemical Co., St. Louis, Mo.). Plates were incubated for 24 hours at 37° C. in a humidified, 5% CO2 atmosphere. After incubation, the medium was aspirated and the wells were rinsed twice with 100 μl of serum-free DMEM. The final rinse was aspirated and 100 μl of the 10^−4-10^−6 M of each solution was added to 6 wells. In addition, 100 μl of vehicle (serum free DMEM with DMSO at 0.1% v:v) was added to 6 wells as control. In addition, duplicate wells of each test and control solution were placed in wells without the human fibroblast cells to serve as blanks for each treatment. All wells were incubated for 28 hours at 37° C. in a humidified, 5% CO2 atmosphere. After incubation, 20 μl of Cell Titer 96 Aqueous One Solution Reagent (Promega, Corp., Madison, Wis.) was added to all wells. The plates were swirled gently and place back in the incubator for 45 minutes and spectrophotometric absorbance was read at 490 nm. Absorbance of the wells without cells was subtracted from the absorbance of the wells with cells to give the true absorbance. Various compounds of present invention were tested for their cell proliferating effect on human skin fibroblasts. The effect of flavonoids naringin and quercetin on cell proliferation in human foreskin fibroblasts (ATCC cell line CRL-2522) was measured and data is presented in FIG. 1. The control and all test materials contained a final concentration of 0.1% DMSO in DMEM with n=6. Sample concentrations were 10^−4, 10^−5 and 10^−6 M. Statistical analysis was done by using one-way ANOVA.

Compound: O=c1c(O)c(-c2ccc(O)c(O)c2)oc2cc(O)cc(O)c12 [quercetin]
- difference in cell proliferation between controls and test compound (one-way ANOVA): Statistically significant difference
- cell growth relative to the control (at higher concentrations (samples tested at 10^-4, 10^-5 and 10^-6 M; 28 hours, serum-free DMEM, 0.1% DMSO, n=6)): appears to show cell inhibition
- cell proliferating effect on human skin fibroblasts: good cell proliferating agents

Compound: C[C@@H]1O[C@@H](O[C@H]2[C@H](Oc3cc(O)c4c(c3)O[C@H](c3ccc(O)cc3)CC4=O)O[C@H](CO)[C@@H](O)[C@@H]2O)[C@H](O)[C@H](O)[C@H]1O [naringin]
- difference in cell proliferation between controls and test compound (one-way ANOVA): Statistically significant difference
- cell proliferating effect on human skin fibroblasts: good cell proliferating agents
